Experimental data taken from PubChem BioAssay (NCI).
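Grown in 96-well plates, cells were treated for 48 hours with each compound at five concentrations. Insufficient inhibition: endpoint recorded as highest concentration tested. The concentration for 50% growth inhibition is given as GI50. TGI: total growth inhibition.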

Tests used:
Test in all cases: NCI anticancer screen, dose series, 48 h
COLO 205 colon = system: COLO 205 colon
EKVX NSCLC = system: EKVX NSCLC
OVCAR-5 ovarian = system: OVCAR-5 ovarian
OVCAR-8 ovarian = system: OVCAR-8 ovarian
SF-539 CNS = system: SF-539 CNS
SK-MEL-2 melanoma = system: SK-MEL-2 melanoma
SN12C renal = system: SN12C renal
SNB-19 CNS = system: SNB-19 CNS
U251 CNS = system: U251 CNS
NCI/ADR-RES ovarian = system: NCI/ADR-RES ovarian

Row | SMILES | TGI (COLO 205 colon) [µM] | TGI (EKVX NSCLC) [µM] | TGI (OVCAR-5 ovarian) [µM] | TGI (OVCAR-8 ovarian) [µM] | TGI (SF-539 CNS) [µM] | TGI (SK-MEL-2 melanoma) [µM] | TGI (SN12C renal) [µM] | TGI (SNB-19 CNS) [µM] | TGI (U251 CNS) [µM] | GI50 (COLO 205 colon) [µM] | GI50 (EKVX NSCLC) [µM] | GI50 (NCI/ADR-RES ovarian) [µM] | TGI (NCI/ADR-RES ovarian) [µM] | GI50 (OVCAR-5 ovarian) [µM] | GI50 (OVCAR-8 ovarian) [µM] | GI50 (SK-MEL-2 melanoma) [µM] | GI50 (SN12C renal) [µM] | GI50 (SNB-19 CNS) [µM] | GI50 (U251 CNS) [µM] | GI50 (SF-539 CNS) [µM]
1 | COc1ccccc1NC(=O)C1=C(C)NC(C)=C(C(=O)Nc2ccccc2OC)C1c1cccc2ccccc12 | > 100 | > 100 | > 100 | > 100 | > 100 | > 100 | > 100 | > 100 | > 100 | – | – | – | – | – | – | – | – | – | – | –
2 | CCSc1ccc([C@@H]2[C@@H](N)C(=O)N2c2cc(OC)c(OC)c(OC)c2)cc1 | 11.7 | > 100 | > 100 | > 100 | – | > 100 | > 100 | > 100 | > 100 | 0.0513 | 0.638 | 0.13 | > 100 | 0.892 | 0.176 | 0.047 | 0.524 | 0.0715 | 0.061 | –
3 | COc1ccc(/C=C\c2cc(OC)c(OC)c(OC)c2)cc1OCC(=O)Nc1nc2ccccc2s1 | > 49.5 | > 100 | > 100 | > 100 | > 100 | > 100 | > 100 | – | > 32.9 | 3.26 | 3.65 | – | – | 31.9 | 0.257 | 0.187 | 0.431 | – | 0.0416 | 0.187
4 | O=C1c2cccc3c(Cl)ccc(c23)C(=O)N1CCCN1CCN(CCCN2C(=O)c3cccc4c(Cl)ccc(c34)C2=O)CC1 | > 100 | > 100 | > 100 | > 100 | > 100 | > 100 | > 100 | > 100 | > 100 | – | – | – | – | – | – | – | – | – | – | –
5 | Clc1ccc2nc(Cl)c3ccccc3c2c1 | > 100 | – | > 100 | > 100 | 42 | 60.8 | > 100 | 40.2 | 19.9 | 46.8 | – | 17.8 | > 100 | 22.1 | 11.8 | 24.3 | 28 | 9.26 | 3.21 | 12
6 | CCOC(=O)c1ccccc1SC(C[N+](=O)[O-])c1ccccc1 (stereo not given) | 13 | – | 25.3 | 22.5 | 12 | 36.6 | 20.8 | 23.9 | 24.7 | 3.6 | – | 22.5 | 64.1 | 12.3 | 10.5 | 18.9 | 8.17 | 11.7 | 12 | 3.23
7 | Fc1cccc(Cl)c1Cn1c(-c2c(F)cccc2Cl)nc2ccccc21 | > 100 | 32.6 | 95.8 | 37.8 | 46.2 | – | 30.8 | 48.1 | 47.1 | 17.5 | 13.3 | 18.7 | 54.4 | 24.9 | 17.3 | – | 15.7 | 18.4 | 19.9 | 23.1
8 | ClC1c2ccccc2C2(c3ccccc3)OOC1(c1ccccc1)O2 (stereo not given) | 4.58 | 4.62 | 11.2 | 5.16 | 5.01 | 5.64 | 2.9 | 3.21 | 3.59 | – | – | – | – | – | – | – | – | – | – | –
9 | Cc1cccc(C(C)C)c1NC(=O)CCl | > 100 | 53.2 | > 100 | – | > 100 | > 100 | > 100 | > 100 | > 100 | – | – | – | – | – | – | – | – | – | – | –
10 | COc1cc(C(=O)O/N=C(\N)Cc2cccc3ccccc23)cc(OC)c1OC | 28.1 | – | 26.5 | 43.8 | 10.4 | 29.4 | 42.3 | 21.6 | 25.8 | 12.2 | – | 7.02 | 59.2 | 13 | 11.5 | 14.9 | 17.4 | 8.86 | 12 | 2.97
11 | Fc1ccc([C@@H]2CCNC[C@H]2COc2ccc3c(c2)OCO3)cc1 | 3.69 | – | 28.4 | – | 25.6 | 18.5 | 18.9 | 25.4 | 21.1 | 1.91 | – | 14 | 30 | 14.3 | – | 5.72 | 5.79 | 12 | 8.18 | 12.8
12 | CC(C)CN1CC(C)C(=O)NC1=O (stereo not given) | > 100 | > 100 | > 100 | > 100 | > 100 | > 100 | > 100 | > 100 | > 100 | – | – | – | – | – | – | – | – | – | – | –
13 | O=C(Nc1ccc(Nc2ccncc2)cc1)c1ccc(Nc2ccnc3ccc([N+](=O)[O-])cc23)cc1[N+](=O)[O-] | > 100 | > 100 | > 88.4 | 45.2 | 11.2 | – | > 55.5 | > 100 | > 24.8 | 17.5 | 22.5 | 12.8 | > 100 | 38 | 13 | – | 20.4 | 5.61 | 2.76 | 2.98
14 | O=C1NC(=O)[C@@H](c2c[nH]c3ccccc23)[C@@H]1c1c[nH]c2ccccc12 | > 25 | – | > 25 | > 25 | > 25 | > 25 | > 25 | > 25 | > 25 | > 25 | – | > 25 | > 25 | > 25 | > 25 | > 25 | > 25 | > 25 | > 25 | > 25
15 | CCC(C)c1cccc(C)c1NC(=O)C(=O)Cc1nc2ccccc2s1 (stereo not given) | > 100 | > 100 | > 100 | > 100 | > 100 | > 100 | > 100 | > 100 | > 100 | – | – | – | – | – | – | – | – | – | – | –
16 | CN(C)CCNC(=O)c1c2ccccc2cc2ccccc12 | 48.3 | > 100 | > 100 | > 100 | > 100 | 36.8 | > 100 | > 100 | > 100 | – | – | – | – | – | – | – | – | – | – | –
